The IC50 is the concentration needed to halve the response being measured.

Here are results for 2 molecules from US20150231209A1, “STIMULATION OF OVARIAN FOLLICLE DEVELOPMENT AND OOCYTE MATURATION” (THE BOARD OF TRUSTEES OF THE LELAND STANFORD JUNIOR …, priority 2012, published 2015).

The subject of assay [1] is ovarian grafts. Put plainly: Ovarian grafting under kidney capsule of FSH-treated hosts: graft weights and follicle counting. The class given is in vivo, mice. As to conditions: ovaries treated 30 min. with different concentrations, grafted 5 days, hosts treated daily with FSH. How it is done:
FIG. 3. Additive effects of Hippo signaling disruption and Akt stimulation promoted secondary follicle growth. A) Secondary follicles are responsive to IVA treatment. Secondary follicles (115 um in diameter) were isolated from mice at day 10 of age and cultured in vitro with the standard IVA protocol (first day with bPV(hopic) at 3 mM and 740YP at 15 ug/ml, followed by one more day with 740YP alone), followed by treatment with daily FSH (100 ng/ml) for two more days (IVA+FSH). The control groups were either treatment with media alone for four days or treated with the IVA reagent for two days followed by media alone (IVA alone). B) Ovarian fragmentation and IVA treatment led to additive effects on ovarian weight gain and secondary follicle growth. Paired ovaries from mice at day 10 of age were fragmented into three pieces. Fragments from one side were treated with the IVA protocol (bpV(hopic) at 30 uM and 740YP at 150 ng/ml for one day, followed by one more day with 740YP only) whereas fragments from the contralateral side were incubated in media alone. Ovarian fragments were then allo-transplanted into kidney capsules of adult ovariectomized mice with hosts injected with FSH (daily at 1 IU/animal). Five 5 days later, ovarian grafts were retrieved, fixed and weighted. Left panel: graft weights; right panel: Follicle dynamics of grafted ovarian fragments. Percentages of follicles at different stages were determined based on serial sections of grafts. C, Follicle dynamics before and after grafting of intact and fragmented murine ovaries with or without treatment with Akt stimulators. Left: total follicle numbers, Right: follicle dynamics. n=4. Same letter symbols indicate significant differences (p<0.05). D-F. Vitrified human cortical strips were thawed and fragmented into cubes before treatment with Akt stimulators for 2 days followed by grafting into immune-deficient mice for 4 weeks. D. Cortical strips before grafting. Arrow: a secondary follicle, arrowheads: primordial/primary follicles. Scale bar, 100 μm. E. A kidney graft in situ (left) and after isolation (right), showing an antral follicle. F. Histology of two large antral follicles with the side view of one showing an oocyte at the germinal vesicle stage (arrow). Scale bar, 1 mm. Mean±SEM; * p<0.05.
FIG. 7. Pre-treatment with verteporfin and CCN2 antibodies suppressed fragmentation-induced ovarian growth. A, Pretreatment with verteporfin suppressed fragmentation-induced increases in CCN2, but not AMH, transcript levels. Juvenile mice were injected i.p. with verteporfin for 3 h before retrieving ovaries for fragmentation. At 4 h after incubation, transcript levels for CCN2 and AMH were determined by real-time RT-PCR. n=6-12. […] Ovaries from juvenile mice pre-injected with verteporf in for 3 h were fragmented and incubated for 1 h before grafting into FSH-treated hosts for 5 days followed by determination of graft weights. Numbers in parentheses are number of samples used. C, Follicle dynamics of intact and fragmented ovarian grafts from animals with or without verteporf in (VP) pretreatment. n=3-5. D, Incubation of fragmented ovaries with CCN2 antibodies suppressed ovarian weight increases. Paired ovaries were fragmented into 3 pieces followed by incubation with CCN2 antibodies or non-immune-IgG for 18 h before grafting for 5 days. Mean±SEM; *p<0.05.
Left upper panel: Paired ovaries from day 10 mice were treated with or without JASP (10 μM) for 30 min. before analyses of F- and G-actin content. Left lower panel: Real-time RT-PCR analyses of CCN2 transcript levels after 30 min. exposure to JASP. Right panel: Immunoblotting analyses of CCN2 protein levels after 30 min. treatment with JASP. Upper panel: Immunoblotting analyses. Lower panel: quantitative analyses of densitometric scanning data. Numbers in parentheses are number of samples used. * p<0.05. […]

In assay [2] the test system is F-actin/G-actin. Briefly: F-actin and G-actin content of ovaries after JASP. The class given is cell-based. As to conditions: 10 μM for 30 min., ovaries from day 10 mice. Here is the method:
(§1) Left upper panel: Paired ovaries from day 10 mice were treated with or without JASP (10 μM) for 30 min. before analyses of F- and G-actin content. Left lower panel: Real-time RT-PCR analyses of CCN2 transcript levels after 30 min. exposure to JASP. Right panel: Immunoblotting analyses of CCN2 protein levels after 30 min. treatment with JASP. Upper panel: Immunoblotting analyses. Lower panel: quantitative analyses of densitometric scanning data. Numbers in parentheses are number of samples used. * p<0.05. […] Ovaries from day 10 mice were treated with or without different concentrations of JASP for 30 min. before grafting into adult hosts treated daily with FSH. Five days later, graft weights were determined.
Paired ovaries from CD-1 mice at different ages were excised in L-15 medium. One ovary from each animal was cut into 2-4 pieces, whereas the contralateral one remained intact. Ovaries were transferred to culture plate inserts (Millipore, Bedford, Mass.) and cultured in MEMa medium with 3 mg/ml BSA, 0.23 mM sodium pyruvate, 50 ug/ml vitamin C, 30 mIU/ml FSH, 50 mg/L streptomycin sulfate, and 75 mg/L penicillin G. After 30 min. of incubation, media were replaced and incubated for another 30 min. […]
Ratios of F-actin to G-actin in intact and fragmented ovaries were determined by F-actin/G-actin in vivo assay kit (Cytoskeleton, Denver, Colo.). […]

For assay [3], the system named is CCN2. Put plainly: CCN2 transcript and protein levels of ovaries after JASP. The class given is cell-based. The note with it: 30 min. exposure, ovaries from day 10 mice. How it is done: as §1
Paired ovaries from CD-1 mice at different ages were excised in L-15 medium. One ovary from each animal was cut into 2-4 pieces, whereas the contralateral one remained intact. […]
Proteins from NIH3T3 cells or ovaries of mice at day 10 of age were extracted using M-PER Mammalian Protein Extraction Reagent (Thermo, Rockford, Ill.) containing a protease inhibitor cocktail (Thermo). […] Signals were developed using enhanced chemiluminescence (ECL Kit, GE Healthcare) and quantitated using a densitometer. […]

The subject of assay [4] is PTP. The note with it: read-out: IC50, PTP inhibitor; cited from earlier work.

Turning to `C/C1=C\[C@H](C)C[C@H](C)OC(=O)C[C@H](c2ccc(O)cc2)NC(=O)[C@@H](Cc2c(Br)[nH]c3ccccc23)N(C)C(=O)[C@H](C)NC(=O)[C@@H](C)C1` [JASP, jasplakinolide], in assay [1], the “weights of ovarian grafts” value is “increased weights of ovarian grafts”. In assay [2], the “actin polymerization (F- and G-actin content)” value is on record as “increased actin polymerization”. In assay [3], the “CCN2 expression (transcript and protein)” value is “increased”.
For the molecule monoperoxo(picolinato)oxovanadate(V), the IC50 in assay [4] is 18 µM.
